Data from patent US11084795B2, “CFTR regulators and methods of use thereof” (The Regents of the University of California, priority 2015, dated 2021).

Legend:
[1] = tested on: CFTR at the ocular surface; assay: Ocular surface potential difference (PD) in living mice; type: in vivo, mouse; conditions: wild-type mice, 1-10 μM
Description: Open-circuit transepithelial PD were measured continuously in anesthetized mice in response to serial perfusions of different solutions over the ocular surface, as described (21). Mice were anesthetized with Avertin (2,2,2-tribromoethanol, 125 mg/kg intraperitoneal, Sigma-Aldrich, St. Louis, Mo., USA), and core temperature was maintained at 37° C. using a heating pad. Eyes were oriented with the cornea and conjunctiva facing upward and exposed by retracting the eyelid with cross-action forceps. Solutions were isosmolar (320±10 mOsM; compositions provided in ref. 21) and contained 10μ[…] indomethacin to prevent CFTR activation by prostaglandins. The ocular surface was perfused at 6 mL/min through plastic tubing using a multireservoir gravity pinch-valve system (ALA Scientific, Westbury, N.Y., USA) and variable-flow peristaltic pump (medium flow model; Fisher Scientific, Fair Lawn, N.J., USA). A probe catheter was fixed 1 mm above the cornea using a micropositioner and a suction cannula was positioned 3 mm from the orbit. The measuring electrode was in contact to the perfusion catheter and connected to a high-impedance voltmeter (IsoMilivolt Meter; WPI). The reference electrode was grounded via a winged 21-gauge needle filled with isosmolar saline, and inserted subcutaneously in the abdomen. Measuring and reference electrodes consisted of Ag/AgCl with 3 M KCl agar bridges.
An open-circuit potential difference (PD) method developed in our lab was used to evaluate compound activity at the ocular surface in vivo, as depicted in FIG. 3A (21). Cl^− channel function was quantified by measuring PD during continuous perfusion of the ocular surface with a series of solutions that imposed a transepithelial Cl^− gradient and contained various channel agonists and/or inhibitors. The ocular surface was first perfused with isosmolar saline to record the baseline PD. Amiloride was then added to the perfusate, followed by exchange to a low Cl^− solution in which Cl^− with an impermeant anion, gluconate. These maneuvers allow for direct visualization of CFTR activation in response to addition of candidate CFTR activators.
Ocular surface potential difference measurements. Open-circuit transepithelial PD were measured continuously in anesthetized mice in response to serial perfusions of different solutions over the ocular surface, as described (21). Mice were anesthetized with Avertin (2,2,2-tribromoethanol, 125 mg/kg intraperitoneal, Sigma-Aldrich, St. Louis, Mo., USA), and core temperature was maintained at 37° C. using a heating pad. Eyes were oriented with the cornea and conjunctiva facing upward and exposed by retracting the eyelid with cross-action forceps. […]

[2] = tested on: intestinal fluid secretion; assay: Closed mid-jejunal loop model of intestinal fluid secretion; type: in vivo, mouse; conditions: 90 min
Description: Mice (wildtype or CF) were given access to 5% dextrose water but not solid food for 24 h before experiments. Mice were anesthetized with isoflurane and body temperature was maintained during surgery at 36-38° C. using a heating pad. A small abdominal incision was made to expose the small intestine, and closed mid-jejunal loops (length 2-3 cm) were isolated by sutures. Loops were injected with 100 μL vehicle alone or 100 μg CFTRact-J027 in vehicle. The abdominal incision was closed with sutures, and mice were allowed to recover from anesthesia. Intestinal loops were removed at 90 min and loop length and weight were measured to quantify fluid secretion. Intestinal absorption was measured in CF mice (to prevent secretion) as described above, except that the loops were removed at 0 or 30 min. Absorption was calculated as 1−(loop weight at 0 min−loop weight at 30 min)/loop weight at 0 min.
In vivo intestinal secretion and absorption. Mice (wildtype or CF) were given access to 5% dextrose water but not solid food for 24 h before experiments. […] Intestinal loops were removed at 90 min and loop length and weight were measured to quantify fluid secretion. Intestinal absorption was measured in CF mice (to prevent secretion) as described above, except that the loops were removed at 0 or 30 min. Absorption was calculated as 1−(loop weight at 0 min−loop weight at 30 min)/loop weight at 0 min. […]

[3] = tested on: enteroids generated from normal human duodenum and jejunum; assay: Swelling measurements in human enteroids; type: cell-based; conditions: pretreatment 10 min, with 0.1 or 0.2 μM forskolin
Description: Tissues from human subjects were obtained under approval of the Johns Hopkins University School of Medicine Institutional Review Board (protocol NA_00038329). Duodenal and jejunal biopsy specimens were obtained from adults during routine endoscopy at Johns Hopkins Hospital. Crypt isolation, enteroid propagation and culture were as described (16). For swelling measurements enteroids were seeded in 35-mm dishes with bottom coverglass with 1.5 mL media. On the day of the experiment the media was replaced with 3 mL Advanced DMEM/F12 and enteroids were incubated with 1 mM calcein greenacetoxymethyl ester for 1 h at 37° C. to label cytoplasm. Relative enteroid volume following addition of specified concentrations of forskolin was measured using a laser scanning confocal microscope (Fluoview FV10i-LIV; Olympus) at 37° C., 5% CO2, and 95% relative humidity. In some studies CFTRact-J027 was added 10 min prior to forskolin. Images were acquired every 10 min and analyzed with MetaMorph version 7.7 software (Olympus) to quantify enteroid areas.

Nc1ccc([N+](=O)[O-])cc1-c1nc2ccccc2n(Cc2ccccc2)c1=O [CFTRact-J027, 3-(2-amino-5-nitrophenyl)-1-benzylquinoxalin-2(1H)-one]
change in ocular surface PD [1]: large hyperpolarizations | intestinal fluid accumulation compared to equal doses of lubiprostone or linaclotide ([2]; 100 μg per loop): Significantly greater intestinal fluid accumulation | loop fluid secretion in cystic fibrosis mice ([2]; cystic fibrosis mice): without effect | enteroid swelling response as % of that produced by maximal (5 μM) forskolin [3]: approximately 50%
